Data on 16 compounds can be found in ChEMBL document CHEMBL3045422, “Synthesis, characterization, and antimicrobial screening of some Mannich base sydnone derivatives” (2013).

Experiment [1] deals with Candida albicans.
In experiment [2] the test system is Candida albicans. The source holds these as a separate data set.
Experiment [3] relates to Escherichia coli. The experiment is described as follows: microbe, parasite or virus in culture. The following applies: read-out: IZ. Format: functional.
Description: Antibacterial activity against Escherichia coli at 300 ug/ml
The subject of experiment [4] is Staphylococcus aureus. In words: microbe, parasite or virus in culture. The following applies: read-out: IZ. It counts as functional.
Description: Antibacterial activity against Staphylococcus aureus at 300 ug/ml
For experiment [5], the system named is Staphylococcus aureus. The experiment is described as follows: microbe, parasite or virus in culture. Format: functional.
Description: Antibacterial activity against Staphylococcus aureus
The subject of experiment [6] is Pseudomonas aeruginosa. In words: microbe, parasite or virus in culture. It counts as functional. The conditions noted are these: read-out: IZ.
Description: Antibacterial activity against Pseudomonas aeruginosa at 300 ug/ml
Experiment [7] has as its system Pseudomonas aeruginosa. The experiment is described as follows: microbe, parasite or virus in culture. Format: functional.
Description: Antibacterial activity against Pseudomonas aeruginosa
The subject of experiment [8] is Bacillus subtilis. In words: microbe, parasite or virus in culture. Format: functional.
Description: Antibacterial activity against Bacillus subtilis
Experiment [9] relates to Candida albicans. The experiment is described as follows: microbe, parasite or virus in culture. Format: functional.
The subject of experiment [10] is Candida albicans. In words: Antifungal activity against Candida albicans at 300 ug/ml. Format: functional. The conditions noted are these: read-out: IZ.
Experiment [11] concerns Escherichia coli. In words: microbe, parasite or virus in culture. Format: functional.
Description: Antibacterial activity against Escherichia coli
For experiment [12], the system named is Bacillus subtilis. In words: microbe, parasite or virus in culture. It counts as functional. The following applies: read-out: IZ.
Description: Antibacterial activity against Bacillus subtilis at 300 ug/ml

≈ marks a conversion by molar mass, not a printed value.

With NYSTATIN, the IZ with Candida albicans [1] came out at 28 mm. In the experiment with Candida albicans [2], this compound registered an MIC of 100 µg/mL.
As to `COc1ccc(-[n+]2noc([O-])c2CNc2nc3c([N+](=O)[O-])cccc3s2)cc1`, the zone of inhibition at 300 µg/mL with Escherichia coli [3] was found to be 23 mm; in the experiment with Staphylococcus aureus [4], 27 mm; in the experiment with Pseudomonas aeruginosa [6], 18 mm; in the experiment with Candida albicans [10], 32 mm; in the experiment with Bacillus subtilis [12] it was 30 mm. In addition, the MIC in the experiment with Staphylococcus aureus [5] was 20 µg/mL (≈ 50.1 µM); against Pseudomonas aeruginosa [7], 100 µg/mL (≈ 250 µM); against Bacillus subtilis [8] it was 20 µg/mL (≈ 50.1 µM); against Candida albicans [9], 20 µg/mL (≈ 50.1 µM); in the experiment with Escherichia coli [11] it was 40 µg/mL (≈ 100 µM).
Take `COc1ccc(-[n+]2noc([O-])c2CNc2nc3cc([N+](=O)[O-])ccc3s2)cc1`: the zone of inhibition at 300 µg/mL stood at 12 mm with Escherichia coli [3]; 10 mm with Staphylococcus aureus [4]; 10 mm with Pseudomonas aeruginosa [6]; 14 mm with Candida albicans [10]; 10 mm in the experiment on Bacillus subtilis [12]. Further, the MIC in the experiment on Staphylococcus aureus [5] came out at 500 µg/mL (≈ 1250 µM); in the experiment on Pseudomonas aeruginosa [7], 500 µg/mL (≈ 1250 µM); with Bacillus subtilis [8] it was 500 µg/mL (≈ 1250 µM); against Candida albicans [9] it was 200 µg/mL (≈ 501 µM); in the experiment with Escherichia coli [11] it was 300 µg/mL (≈ 751 µM).
`COc1ccc(-[n+]2noc([O-])c2CNc2ccc(C)cc2)cc1`: the zone of inhibition at 300 µg/mL came out at 13 mm in the experiment on Escherichia coli [3]; 13 mm in the experiment with Staphylococcus aureus [4]; 13 mm in the experiment with Pseudomonas aeruginosa [6]; 16 mm in the experiment on Candida albicans [10]; 14 mm in the experiment on Bacillus subtilis [12]. Besides, the MIC in the experiment with Staphylococcus aureus [5], with Pseudomonas aeruginosa [7], in the experiment with Bacillus subtilis [8], against Candida albicans [9] and against Escherichia coli [11] was 200 µg/mL (≈ 642 µM) each time.
In the case of `COc1ccc(-[n+]2noc([O-])c2Cn2c(-c3ccc([N+](=O)[O-])cc3)nc3ccccc32)cc1`, the zone of inhibition at 300 µg/mL stood at 18 mm in the experiment on Escherichia coli [3]; 10 mm with Staphylococcus aureus [4]; 12 mm in the experiment on Pseudomonas aeruginosa [6]; 12 mm with Candida albicans [10]; 12 mm with Bacillus subtilis [12]. The MIC turned out to be 500 µg/mL (≈ 1130 µM) against Staphylococcus aureus [5]; 300 µg/mL (≈ 677 µM) with Pseudomonas aeruginosa [7]; 300 µg/mL (≈ 677 µM) in the experiment with Bacillus subtilis [8]; 200 µg/mL (≈ 451 µM) against Candida albicans [9]; 60 µg/mL (≈ 135 µM) in the experiment with Escherichia coli [11].
With `COc1ccc(-[n+]2noc([O-])c2Cn2c(-c3cccc(Br)c3)nc3ccccc32)cc1`, the zone of inhibition at 300 µg/mL amounted to 12 mm in the experiment on Escherichia coli [3]; 10 mm with Staphylococcus aureus [4]; 10 mm with Pseudomonas aeruginosa [6]; 14 mm with Candida albicans [10]; 10 mm in the experiment with Bacillus subtilis [12]. For the same compound, the MIC against Staphylococcus aureus [5] was found to be 500 µg/mL (≈ 1050 µM); in the experiment on Pseudomonas aeruginosa [7], 500 µg/mL (≈ 1050 µM); against Bacillus subtilis [8], 500 µg/mL (≈ 1050 µM); with Candida albicans [9], 200 µg/mL (≈ 419 µM); against Escherichia coli [11], 300 µg/mL (≈ 629 µM).
As for `COc1ccc(-[n+]2noc([O-])c2Cn2c(-c3ccccc3[N+](=O)[O-])nc3ccccc32)cc1`, the zone of inhibition at 300 µg/mL in the experiment on Escherichia coli [3] was 14 mm; with Staphylococcus aureus [4] it was 21 mm; in the experiment with Pseudomonas aeruginosa [6], 10 mm; in the experiment with Candida albicans [10], 14 mm; in the experiment on Bacillus subtilis [12], 12 mm. The MIC in the experiment with Staphylococcus aureus [5] came to 40 µg/mL (≈ 90.2 µM); against Pseudomonas aeruginosa [7], 500 µg/mL (≈ 1130 µM); with Bacillus subtilis [8], 300 µg/mL (≈ 677 µM); in the experiment with Candida albicans [9], 200 µg/mL (≈ 451 µM); against Escherichia coli [11] it was 200 µg/mL (≈ 451 µM).
For the compound `COc1ccc(-[n+]2noc([O-])c2CNc2nc3ccc(C#N)cc3s2)cc1`, the zone of inhibition at 300 µg/mL with Escherichia coli [3] was 12 mm; with Staphylococcus aureus [4], 16 mm; with Pseudomonas aeruginosa [6] it was 10 mm; in the experiment on Candida albicans [10] it was 17 mm; in the experiment with Bacillus subtilis [12], 17 mm. Also, the MIC was found to be 80 µg/mL (≈ 211 µM) in the experiment on Staphylococcus aureus [5]; 500 µg/mL (≈ 1320 µM) in the experiment on Pseudomonas aeruginosa [7]; 60 µg/mL (≈ 158 µM) against Bacillus subtilis [8]; 100 µg/mL (≈ 264 µM) against Candida albicans [9]; 300 µg/mL (≈ 791 µM) in the experiment on Escherichia coli [11].
In the case of `COc1ccc(-[n+]2noc([O-])c2CNc2ccc(Br)cc2)cc1`, the zone of inhibition at 300 µg/mL with Escherichia coli [3] turned out to be 12 mm; in the experiment on Staphylococcus aureus [4] it was 10 mm; in the experiment with Pseudomonas aeruginosa [6] it was 13 mm; in the experiment on Candida albicans [10] it was 15 mm; with Bacillus subtilis [12], 13 mm. For the same compound, the MIC against Staphylococcus aureus [5] stood at 300 µg/mL (≈ 797 µM); in the experiment on Pseudomonas aeruginosa [7], 200 µg/mL (≈ 532 µM); with Bacillus subtilis [8] it was 200 µg/mL (≈ 532 µM); against Candida albicans [9] it was 200 µg/mL (≈ 532 µM); in the experiment with Escherichia coli [11] it was 300 µg/mL (≈ 797 µM).
Consider `COc1ccc(-[n+]2noc([O-])c2CNc2ccc(Cl)cc2)cc1`, for which the zone of inhibition at 300 µg/mL with Escherichia coli [3] came to 13 mm; in the experiment with Staphylococcus aureus [4], 12 mm; in the experiment on Pseudomonas aeruginosa [6], 13 mm; in the experiment on Candida albicans [10] it was 18 mm; with Bacillus subtilis [12], 13 mm. Moreover, the MIC against Staphylococcus aureus [5] was determined as 200 µg/mL (≈ 603 µM); against Pseudomonas aeruginosa [7] it was 300 µg/mL (≈ 904 µM); in the experiment on Bacillus subtilis [8], 200 µg/mL (≈ 603 µM); in the experiment with Candida albicans [9] it was 80 µg/mL (≈ 241 µM); in the experiment on Escherichia coli [11] it was 300 µg/mL (≈ 904 µM).
As to `COc1ccc(-[n+]2noc([O-])c2CNc2ccc([N+](=O)[O-])cc2)cc1`, the zone of inhibition at 300 µg/mL in the experiment on Escherichia coli [3] worked out at 14 mm; with Staphylococcus aureus [4], 10 mm; in the experiment with Pseudomonas aeruginosa [6] it was 14 mm; in the experiment with Candida albicans [10], 14 mm; in the experiment with Bacillus subtilis [12], 12 mm. The MIC in the experiment with Staphylococcus aureus [5] is 500 µg/mL (≈ 1460 µM); against Pseudomonas aeruginosa [7] it was 200 µg/mL (≈ 584 µM); against Bacillus subtilis [8], 200 µg/mL (≈ 584 µM); against Candida albicans [9], 200 µg/mL (≈ 584 µM); in the experiment with Escherichia coli [11], 200 µg/mL (≈ 584 µM).
As to `COc1ccc(-[n+]2noc([O-])c2CNc2nc3ccc(Cl)cc3s2)cc1`, the zone of inhibition at 300 µg/mL with Escherichia coli [3] was 13 mm; with Staphylococcus aureus [4], 14 mm; in the experiment with Pseudomonas aeruginosa [6], 13 mm; in the experiment on Candida albicans [10], 16 mm; in the experiment with Bacillus subtilis [12], 15 mm. Besides, the MIC stood at 200 µg/mL (≈ 514 µM) with Staphylococcus aureus [5]; 200 µg/mL (≈ 514 µM) in the experiment on Pseudomonas aeruginosa [7]; 200 µg/mL (≈ 514 µM) with Bacillus subtilis [8]; 100 µg/mL (≈ 257 µM) in the experiment on Candida albicans [9]; 200 µg/mL (≈ 514 µM) against Escherichia coli [11].
On to `COc1ccc(-[n+]2noc([O-])c2Cn2c(-c3ccccc3Br)nc3ccccc32)cc1`, for which the zone of inhibition at 300 µg/mL with Escherichia coli [3] was 14 mm; in the experiment with Staphylococcus aureus [4], 10 mm; in the experiment on Pseudomonas aeruginosa [6], 13 mm; in the experiment with Candida albicans [10] it was 13 mm; with Bacillus subtilis [12] it was 12 mm. Further, the MIC is 500 µg/mL (≈ 1050 µM) in the experiment with Staphylococcus aureus [5]; 200 µg/mL (≈ 419 µM) with Pseudomonas aeruginosa [7]; 300 µg/mL (≈ 629 µM) in the experiment with Bacillus subtilis [8]; 200 µg/mL (≈ 419 µM) with Candida albicans [9]; 200 µg/mL (≈ 419 µM) against Escherichia coli [11].
In the case of `CCOc1ccc2nc(NCc3c([O-])on[n+]3-c3ccc(OC)cc3)sc2c1`, the zone of inhibition at 300 µg/mL in the experiment with Escherichia coli [3] turned out to be 13 mm; with Staphylococcus aureus [4], 14 mm; with Pseudomonas aeruginosa [6] it was 13 mm; in the experiment on Candida albicans [10], 14 mm; in the experiment with Bacillus subtilis [12], 13 mm. The MIC is 200 µg/mL (≈ 502 µM) in the experiment with Staphylococcus aureus [5]; 200 µg/mL (≈ 502 µM) in the experiment with Pseudomonas aeruginosa [7]; 200 µg/mL (≈ 502 µM) in the experiment with Bacillus subtilis [8]; 200 µg/mL (≈ 502 µM) with Candida albicans [9]; 300 µg/mL (≈ 753 µM) in the experiment on Escherichia coli [11].
For the compound `COc1ccc(-[n+]2noc([O-])c2CNc2nc3ccc(C)cc3s2)cc1`, the zone of inhibition at 300 µg/mL in the experiment with Escherichia coli [3] is 12 mm; in the experiment on Staphylococcus aureus [4], 15 mm; with Pseudomonas aeruginosa [6] it was 10 mm; with Candida albicans [10] it was 17 mm; in the experiment with Bacillus subtilis [12], 18 mm. The MIC in the experiment with Staphylococcus aureus [5] came out at 200 µg/mL (≈ 543 µM); against Pseudomonas aeruginosa [7], 500 µg/mL (≈ 1360 µM); in the experiment with Bacillus subtilis [8], 60 µg/mL (≈ 163 µM); with Candida albicans [9] it was 100 µg/mL (≈ 271 µM); against Escherichia coli [11] it was 300 µg/mL (≈ 814 µM).
Regarding `COc1ccc(-[n+]2noc([O-])c2Cn2c(-c3ccc(Cl)cc3Cl)nc3ccccc32)cc1`, the zone of inhibition at 300 µg/mL in the experiment with Escherichia coli [3] came to 12 mm; with Staphylococcus aureus [4] it was 10 mm; with Pseudomonas aeruginosa [6] it was 12 mm; in the experiment on Candida albicans [10] it was 16 mm; with Bacillus subtilis [12] it was 10 mm. Further, the MIC turned out to be 500 µg/mL (≈ 1070 µM) with Staphylococcus aureus [5]; 300 µg/mL (≈ 642 µM) against Pseudomonas aeruginosa [7]; 500 µg/mL (≈ 1070 µM) in the experiment with Bacillus subtilis [8]; 200 µg/mL (≈ 428 µM) with Candida albicans [9]; 300 µg/mL (≈ 642 µM) in the experiment on Escherichia coli [11].
